For orientation: IC50 means the concentration that inhibits the measured activity by half.

The test system of one data set is JeKo-1. Nature of the data set: cells. In kind it is cell-based. To be noted: Homo sapiens; JeKo-1, MCL, dominant CDK4; read-out: IC50, mean ± SD.
For the next data set, the system named is T47D. Nature of the data set: cells. In kind it is cell-based. Particulars: Homo sapiens, ER+ BC, dominant CDK4, read-out: IC50, mean ± SD.
The subject of the next data set is HBCx-1. In kind it is in vivo. Particulars: HBCx-1, Breast, HER2High, Rb absent; 125 mg/kg bid × 21.
A further data set relates to HBCx-2. The format is in vivo. To be noted: HBCx-2, Breast, TNBC, Rb absent; 125 mg/kg bid × 21.
In the next data set the test system is HBCx-16. The format is in vivo. To be noted: HBCx-16, Breast, HER2High, Rb present; 125 mg/kg bid × 21.
In the next data set the test system is HBCx-6. The format is in vivo. To be noted: HBCx-6, Breast, TNBC, Rb present; 125 mg/kg bid × 21.
In another data set the test system is HBCx-12. In kind it is in vivo. Particulars: HBCx-12, Breast, TNBC, Rb present; 125 mg/kg bid × 21.
In a further data set the test system is HBCx-8. The format is in vivo. To be noted: HBCx-8, Breast, TNBC, Rb present; 125 mg/kg bid × 21.
The subject of another data set is HBCx-11. In kind it is in vivo. To be noted: HBCx-11, Breast, TNBC, Rb present; 125 mg/kg bid × 21.
In the next data set the test system is HPAX0991. The format is in vivo. To be noted: HPAX0991, Pancreatic, Rb present; 250 mg/kg qd.
The subject of a further data set is HPAX1199. The format is in vivo. Particulars: HPAX1199, Pancreatic, Rb present; 250 mg/kg qd.
A further data set concerns KELLY. Description: cells. The format is cell-based. Particulars: 72 h.
Data set [1] has as its system MDA-MB-415. Nature of the data set: cells. In kind it is cell-based. Particulars: Homo sapiens, MDA-MB-415, 72 h.
Data set [2] concerns SNU-761. Nature of the data set: cells. Particulars: SNU-761, 72 h. In kind it is cell-based.
For data set [3], the system named is SNU-387. Description: cells. To be noted: Homo sapiens, SNU-387, 72 h. In kind it is cell-based.
For a further data set, the system named is NCI-H3122. Nature of the data set: cells. In kind it is cell-based. To be noted: Homo sapiens, NCI-H3122, 72 h.
The next data set deals with A549. Description: cells. In kind it is cell-based. Particulars: Homo sapiens, A549, 72 h.
For another data set, the system named is NCI-H23. Description: cells. In kind it is cell-based. Particulars: Homo sapiens, NCI-H23, 72 h.
A further data set deals with NCI-H3255. Nature of the data set: cells. To be noted: Homo sapiens, NCI-H3255, 72 h. The format is cell-based.
The test system of a further data set is KYSE150. Nature of the data set: cells. The format is cell-based. Particulars: Homo sapiens, KYSE-150; KYSE150, 72 h.
Another data set has as its system TE-10. Nature of the data set: cells. In kind it is cell-based. Particulars: Homo sapiens, TE-10, 72 h.
Data set [4] deals with TE-8. Nature of the data set: cells. The format is cell-based. To be noted: Homo sapiens, TE-8, 72 h.
The test system of the next data set is SK-MEL-30. Nature of the data set: cells. The format is cell-based. To be noted: Homo sapiens, SK-MEL-30, 72 h.
The next data set deals with WM-115. Nature of the data set: cells. In kind it is cell-based. To be noted: Homo sapiens, WM-115, 72 h.
The subject of a further data set is NB1. Description: cells. The format is cell-based. To be noted: Homo sapiens, NB1, 72 h.
The test system of a further data set is MCF-7. Nature of the data set: cells. The format is cell-based. Particulars: Homo sapiens, MCF7; MCF-7, 72 h.
The test system of data set [5] is MDA-MB-415. Nature of the data set: cells. The format is cell-based. To be noted: Homo sapiens, MDA-MB-415, 72 h. This is another data set of the same source.
Data set [6] concerns SNU-761. Description: cells. In kind it is cell-based. To be noted: SNU-761, 72 h. The source holds these as a separate data set.
For data set [7], the system named is SNU-387. Description: cells. To be noted: Homo sapiens, SNU-387, 72 h. The format is cell-based. The source holds these as a separate data set.
The next data set deals with MGH049. Description: cells. The format is cell-based. Particulars: MGH049, 72 h.
For the next data set, the system named is NCI-H1573. Description: cells. In kind it is cell-based. To be noted: Homo sapiens, NCI-H1573, 72 h.
Another data set deals with NCI-H1975. Nature of the data set: cells. Particulars: Homo sapiens, NCI-H1975, 72 h. In kind it is cell-based.
The next data set deals with NCI-H441. Nature of the data set: cells. In kind it is cell-based. Particulars: Homo sapiens, NCI-H441, 72 h.
The next data set relates to HCC-827. Nature of the data set: cells. Particulars: Homo sapiens, HCC827; HCC-827, 72 h. The format is cell-based.
The test system of a further data set is PC-14. Description: cells. In kind it is cell-based. To be noted: Homo sapiens, PC-14, 72 h.
Data set [8] deals with TE-8. Description: cells. The format is cell-based. To be noted: Homo sapiens, TE-8, 72 h. The source holds these as a separate data set.
The test system of a further data set is TE-11. Description: cells. Particulars: Homo sapiens, TE-11, 72 h. In kind it is cell-based.
A further data set relates to KYSE450. Nature of the data set: cells. The format is cell-based. To be noted: Homo sapiens, KYSE-450; KYSE450, 72 h.
In the next data set the test system is MELJUSO. Nature of the data set: cells. To be noted: Homo sapiens, MEL-JUSO, 72 h. In kind it is cell-based.
The next data set relates to CDK2/cyclin A. Particulars: cited from earlier work.
A further data set relates to CDK9/cyclin T1. Particulars: cited from earlier work.
For data set [9] the following is noted: humans, 600 mg once daily; data not shown; cited from earlier work.

Molecules are shown by their SMILES.

For the compound `CC(=O)c1c(C)c2cnc(Nc3ccc(N4CCNCC4)cn3)nc2n(C2CCCC2)c1=O` [Palbociclib, reference compound], the half-inhibitory concentration (IC50) in the data set with JeKo-1 came to 72000 ± 33000 nM; in the data set on T47D, 66000 ± 19000 nM.
As to `CN(C)C(=O)c1cc2cnc(Nc3ccc(N4CCNCC4)cn3)nc2n1C1CCCC1` [Ribociclib, 7-cyclopentyl-2-(5-piperazin-1-yl-pyridin-2-ylamino)-7H-pyrrolo[2,3-d]pyrimidine-6-carboxylic acid dimethylamide], the T/C with HBCx-1 was found to be 80; in the data set on HBCx-2 it was 102; with HBCx-16 it was 71; with HBCx-6, 64; in the data set on HBCx-12 it was 33; with HBCx-8 it was 10. Moreover, the figures for the T/C with HBCx-11, in the data set with HPAX0991 and in the data set with HPAX1199 were 52, 11 and 18, respectively. Moreover, the IC50 in the data set with KELLY amounted to 270 nM; in the data set with MDA-MB-415 [1], 980 nM; with SNU-761 [2], 670 nM; with SNU-387 [3] it was 2490 nM; with NCI-H3122, 510 nM; with A549, 1200 nM. The IC50 in the data set on NCI-H23 is over 10000 nM; with NCI-H3255 it was over 10000 nM; with KYSE150, 550 nM; in the data set on TE-10 it was 1010 nM; in the data set on TE-8 [4], 2440 nM; with SK-MEL-30 it was 1000 nM. The IC50 in the data set with WM-115 was over 10000 nM; in the data set with NB1, 1600 nM; in the data set on MCF-7, over 10000 nM; in the data set on MDA-MB-415 [5], over 10000 nM; in the data set with SNU-761 [6] it was over 10000 nM; in the data set with SNU-387 [7], over 10000 nM. Further, the IC50 with MGH049, with NCI-H1573, with NCI-H1975, in the data set on NCI-H441, with HCC-827 and in the data set on PC-14 was over 10000 nM throughout. For the same compound, the IC50 in the data set with TE-8 [8], with TE-11, in the data set on KYSE450 and in the data set with MELJUSO was over 10000 nM in each case. Also, the “activity against CDK2/cyclin A” value in the data set on CDK2/cyclin A is recorded as “far less active”. Moreover, the “activity against CDK9/cyclin T1” value with CDK9/cyclin T1 is on record as “far less active”. Further, the “area under the concentration-time curve” value in [9] is ~22,000 ng/mL × h. In addition, the maximum serum concentration in data set [9] is about 1700 ng/mL.
